Reference: the supplement of paper PMC11061612

Key:
Assay in all cases: combination Emax (second highest fraction inhibited in the dose matrix, 72 h); higher = more inhibition; extreme values may be limits of the assay
[1] = tested on: CAL-51 (Breast Carcinoma)
Summary of the method: (§1)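 After 24 hours at 37°C and 5% CO2 in 1536-well plates, cells in DMEM/F12 or RPMI plus 10% FBS received two-drug dose matrices for 72 hours. Viability came from CellTiter-Glo 2.0 luminescence and was scaled as inhibition, anchored at 0 by vehicle wells and at 1 by blank wells. Combination Emax is taken as the second-highest inhibition in the matrix, and Bliss excess as the observed combination effect less EA + EB − EA·EB, with EA and EB the single-agent effects.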

[2] = tested on: RKO (Colorectal Carcinoma)
Summary of the method: as §1

COLO-829 (Melanoma) = tested on: COLO-829 (Melanoma)
Summary of the method: as §1

[3] = tested on: EN (Endometrial Carcinoma)
Summary of the method: as §1

[4] = tested on: PCI-30 (Head and Neck Carcinoma)
Summary of the method: as §1

[5] = tested on: HCC-15 (Squamous Cell Lung Carcinoma)
Summary of the method: as §1

[6] = tested on: RPMI-6666 (Non-Cancerous)
Summary of the method: as §1

NCI-H2795 (Mesothelioma) = tested on: NCI-H2795 (Mesothelioma)
Summary of the method: as §1

[7] = tested on: SW1271 (Small Cell Lung Carcinoma)
Summary of the method: as §1

NB14 (Neuroblastoma) = tested on: NB14 (Neuroblastoma)
Summary of the method: as §1

[8] = tested on: SU-DHL-6 (B-Cell Non-Hodgkin's Lymphoma)
Summary of the method: as §1

[9] = tested on: 639-V (Bladder Carcinoma)
Summary of the method: as §1

NCI-H2461 (Mesothelioma) = tested on: NCI-H2461 (Mesothelioma)
Summary of the method: as §1

[10] = tested on: HARA (Squamous Cell Lung Carcinoma)
Summary of the method: as §1

[11] = tested on: UMC-11 (Other Solid Carcinomas)
Summary of the method: as §1

[12] = tested on: NCI-H69 (Small Cell Lung Carcinoma)
Summary of the method: as §1

[13] = tested on: CAL-54 (Kidney Carcinoma)
Summary of the method: as §1

[14] = tested on: 8305C (Thyroid Gland Carcinoma)
Summary of the method: as §1

SH-4 (Melanoma) = tested on: SH-4 (Melanoma)
Summary of the method: as §1

[15] = tested on: NCI-H747 (Colorectal Carcinoma)
Summary of the method: as §1

SMILES	combination Emax [1]	combination Emax [2]	combination Emax (COLO-829 (Melanoma))	combination Emax [3]	combination Emax [4]	combination Emax [5]	combination Emax [6]	combination Emax (NCI-H2795 (Mesothelioma))	combination Emax [7]	combination Emax (NB14 (Neuroblastoma))	combination Emax [8]	combination Emax [9]	combination Emax (NCI-H2461 (Mesothelioma))	combination Emax [10]	combination Emax [11]	combination Emax [12]	combination Emax [13]	combination Emax [14]	combination Emax (SH-4 (Melanoma))	combination Emax [15]
NC1(C(=O)N[C@@H](CCO)c2ccc(Cl)cc2)CCN(c2ncnc3[nH]ccc23)CC1 [Capivasertib] + C[C@@H]1COCCN1C2=NC(=NC(=C2)C3(CC3)[S@](=N)(=O)C)C4=C5C=CNC5=NC=C4 [AZD6738] (first compound max 10 µM, 7x7, partner max 10 µM)	0.936	0.938	0.563	0.71	0.482	0.367	0.775	0.737	0.512	0.964	1	0.496	0.797	0.868	0.67	0.671	0.813	0.683	0.492	0.626
Cc1cc2ncnn2cc1Nc1ncc2c(n1)n(C1CCOCC1)c(=O)n2C [AZD7648] + CN(C)CCCOc1ccc(-c2ccc3ncc4c(c3c2)n(C2CCOCC2)c(=O)n4C)cn1 [AZD0156] (first compound max 10 µM, 7x7, partner max 1 µM)	0.274	0.391	0.129	0.35	0.234	0.227	0.359	0.469	0.327	0.407	0.621	0.239	0.448	0.283	0.21	0.355	0.353	0.414	0.291	0.387
COc1cccc(OCCCN)c1-c1cc(Nc2cnc(C#N)cn2)n[nH]1 [Prexasertib] + Cc1cc2ncnn2cc1Nc1ncc2c(n1)n(C1CCOCC1)c(=O)n2C [AZD7648] (first compound max 1 µM, 7x7, partner max 10 µM)	0.916	0.901	0.398	0.756	0.721	0.333	0.959	0.765	0.678	1	0.629	0.362	0.693	0.953	0.902	0.583	0.821	0.724	0.709	0.396
NC1(C(=O)N[C@@H](CCO)c2ccc(Cl)cc2)CCN(c2ncnc3[nH]ccc23)CC1 [Capivasertib] + CC(=O)c1c(C)c2cnc(Nc3ccc(N4CCNCC4)cn3)nc2n(C2CCCC2)c1=O [Palbociclib] (first compound max 10 µM, 7x7, partner max 10 µM)	0.55	0.601	0.356	0.546	0.291	0.633	0.675	0.489	0.349	0.598	1	0.299	0.467	0.689	0.553	0.764	0.658	0.469	0.427	0.795
CCc1c2c(nc3ccc(O)cc13)-c1cc3c(c(=O)n1C2)COC(=O)[C@]3(O)CC [SN-38] + CN(C)CCCOc1ccc(-c2ccc3ncc4c(c3c2)n(C2CCOCC2)c(=O)n4C)cn1 [AZD0156] (first compound max 0.3 µM, 7x7, partner max 1 µM)	0.728	0.91	0.497	0.157	0.692	0.879	0.947	0.808	0.707	0.918	0.987	1	0.639	0.768	0.303	0.738	0.925	0.572	0.27	0.408
CS(=O)(=O)CCNCc1ccc(-c2ccc3ncnc(Nc4ccc(OCc5cccc(F)c5)c(Cl)c4)c3c2)o1 [Lapatinib] + C[C@@H](Oc1cc(-c2cnn(C3CCNCC3)c2)cnc1N)c1c(Cl)ccc(F)c1Cl [Crizotinib] (first compound max 10 µM, 7x7, partner max 10 µM)	0.691	0.942	0.711	0.559	0.366	0.945	0.843	0.949	0.529	0.979	0.983	0.853	0.91	0.95	0.703	0.845	0.916	0.94	0.883	0.926
Cc1cc2ncnn2cc1Nc1ncc2c(n1)n(C1CCOCC1)c(=O)n2C [AZD7648] + CCN(CCO)CCCOc1ccc2c(Nc3cc(CC(=O)Nc4cccc(F)c4)[nH]n3)ncnc2c1 [AZD2811] (first compound max 10 µM, 7x7, partner max 1 µM)	0.446	0.409	0.196	0.519	0.318	0.703	0.584	0.45	0.376	0.837	0.51	0.278	0.468	0.364	0.701	0.743	0.443	0.451	0.345	0.306
CC1(C)CCC(CN2CCN(c3ccc(C(=O)NS(=O)(=O)c4ccc(NCC5CCOCC5)c([N+](=O)[O-])c4)c(Oc4cnc5[nH]ccc5c4)c3)CC2)=C(c2ccc(Cl)cc2)C1 [Venetoclax] + CN(C)CCCOc1ccc(-c2ccc3ncc4c(c3c2)n(C2CCOCC2)c(=O)n4C)cn1 [AZD0156] (first compound max 1 µM, 7x7, partner max 1 µM)	0.242	0.381	0.21	0.426	0.149	0.215	0.976	0.46	0.207	0.98	0.904	0.202	0.525	0.651	0.269	0.548	0.239	0.369	0.279	0.305
COc1nnc2ccc(N3CCC(c4ccc(OCCN5CCN(C)C(=O)[C@H]5C)cc4)CC3)nn12 [AZD5153] + CCN(CCO)CCCOc1ccc2c(Nc3cc(CC(=O)Nc4cccc(F)c4)[nH]n3)ncnc2c1 [AZD2811] (first compound max 1 µM, 7x7, partner max 1 µM)	0.807	0.812	0.3	0.454	0.41	0.74	0.634	0.497	0.534	0.858	0.903	0.681	0.592	0.679	0.843	0.782	0.778	0.594	0.613	0.734
NC1(C(=O)N[C@@H](CCO)c2ccc(Cl)cc2)CCN(c2ncnc3[nH]ccc23)CC1 [Capivasertib] + CCN(CCO)CCCOc1ccc2c(Nc3cc(CC(=O)Nc4cccc(F)c4)[nH]n3)ncnc2c1 [AZD2811] (first compound max 10 µM, 7x7, partner max 1 µM)	0.651	0.615	0.35	0.661	0.28	0.773	0.675	0.413	0.315	0.938	1	0.387	0.564	0.679	0.879	0.877	0.545	0.452	0.323	0.631
COc1cccc(OCCCN)c1-c1cc(Nc2cnc(C#N)cn2)n[nH]1 [Prexasertib] + C[C@@H]1COCCN1C2=NC(=NC(=C2)C3(CC3)[S@](=N)(=O)C)C4=C5C=CNC5=NC=C4 [AZD6738] (first compound max 1 µM, 7x7, partner max 10 µM)	0.929	0.946	0.335	0.726	0.773	0.33	0.955	0.765	0.719	1	0.621	0.397	0.721	0.943	0.866	0.616	0.84	0.718	0.63	0.443
COc1nnc2ccc(N3CCC(c4ccc(OCCN5CCN(C)C(=O)[C@H]5C)cc4)CC3)nn12 [AZD5153] + Cc1c2c(nn1C)CSCc1cc(n(C)n1)CSc1cc(c3ccccc3c1)OCCCc1c(C(=O)O)n(C)c3c-2c(Cl)ccc13 [AZD5991] (first compound max 1 µM, 7x7, partner max 1 µM)	0.917	0.78	0.514	0.645	0.344	0.535	0.804	0.864	0.512	0.934	1	0.653	0.498	0.741	0.994	0.507	0.729	0.545	0.89	0.734
Cc1cc2ncnn2cc1Nc1ncc2c(n1)n(C1CCOCC1)c(=O)n2C [AZD7648] + C[C@@H]1COCCN1C2=NC(=NC(=C2)C3(CC3)[S@](=N)(=O)C)C4=C5C=CNC5=NC=C4 [AZD6738] (first compound max 10 µM, 7x7, partner max 10 µM)	0.923	0.865	0.286	0.62	0.686	0.181	0.797	0.609	0.674	0.99	0.613	0.404	0.71	0.841	0.537	0.469	0.769	0.609	0.335	0.408
